Laboratory results: patent US5441743A, “Marine compositions bearing preferentially concentrated domains of non-tin, organo anti-fouling agents” (priority 1993, dated 1995)
Where “and” joins values, the source holds several entries; their conditions need not be identical. Identical values can stand only once. Like-named read-outs stand apart in the source and are kept apart here.

Tests used:
fouling = test: Anti-fouling panel exposure in the ocean at Daytona Beach, rating 0 to 10; conditions: for General Rating, 1 Mo. / General Rating, 4 Mos. / General Rating, 6 Mos.: Example 15, Table 7, agent as is
Excerpt: Test panels were 15.24 cm×30.48 cm (6 in×12 in) in dimension and were constructed of a white plastic top surface and a black plastic bottom surface. The test panels were coated on both sides with the two formulations above-tabulated at a film thickness of about 5 mils dry. The test panels then were exposed horizontally with the white surface upward and the black surface downward in the ocean at Daytona Beach, Fla., U.S.A. A control panel consisted of 12 wt-% triphenyl tin hydroxide dispersed in a resinous vinyl binder (80 wt-parts of a vinyl chloride polymer, VAGH brand, Union Carbide Corporation, New York, N.Y.) reduced in methyl ethyl ketone solvent to 50% solids content. After exposure, the control and test panels were inspected and assigned a numerical rating from 0 to 10 based on the amount of surface area of the panel that was free from fouling, a rating of "10" corresponding to perfect protection. The following results were recorded.

rats or mice = conditions: cited from earlier work
rats = conditions: oral; cited from earlier work
[1] = SEM / Energy Dispersion Spectroscopy analysis of cured epoxy resin; type: physicochemical; conditions: Example 16, Sample 2 (FIG. 2); EDS
Excerpt: An epoxy resin system was examined for its ability to be modified so as to preferentially influence the concentration or location of an anti-fouling agent (Nopocide N-96, see Example 1) within its structure. A direct comparison was made between an epoxy resin (EPON 828 epoxy resin, diglycidyl ether of bis-phenol A, Shell Chemical Company) and the same epoxy resin containing a domain structuring polymeric material, such as a polysulfide resin (LP-32 polysulfide resin, Thiokol Corporation). Both systems contained the same anti-fouling agent. The compositions formulated are set forth below: […]

mammalian = conditions: in words; cited from earlier work
fish = conditions: in words; cited from earlier work
[2] = Example 13, Table 5, additive at 20 wt-%
[3] = Example 12, Table 4, additive at 20 wt-%
[4] = listed as 2,3-Dichloro-1,4-Naphthaquinone
[5] = Example 14, Table 6, additive at 20 wt-%
[6] = Example 11, Table 3, additive at 20 wt-%, 10 is perfect protection
[7] = Example 10, 20 wt-% in Control Paint, 10 is perfect protection

## C#CC(C)(C)NC(=O)c1cc(Cl)cc(Cl)c1 [Pronamide, 3,5-dichloro-N-(3,3-dimethylpropyne)benzamide]
fouling; [2]
  Rating After Exposure, 1 Months: 0
  Rating After Exposure, 4 Months: 0

## O=C1OC(=O)C2C1C1(Cl)C(Cl)=C(Cl)C2(Cl)C1(Cl)Cl (centres unmarked) [1,4,5,6,7,7-hexachloro-5-norborene-2,3-dicarboxylic anhydride]
fouling; [3]
  Rating After Exposure, 4 Months: 0

## CCCCCCCCCCCCNC(=N)N [dodecylguanidine monoacetate]
Rats or mice; species not given, in mg/kg
  LD50 value: 1,000

## C#CCOS(=O)OC1CCCCC1Oc1ccc(C(C)(C)C)cc1 (centres unmarked) [dimethylethylphenoxy-cyclohexyl-2-propynyl sulfite]
Rats or mice; species not given, in mg/kg
  LD50 value: 2,200

## OB(O)O [boric acid]
rats
  LD50 value: 3,000 mg/kg
fouling; in words
  anti-fouling activity: quite active as an anti-fouling agent

## C=CCc1ccc(O)c(OC)c1 [Eugenol, 4-allyl-2-methoxyphenol]
rats
  LD50 value: 2,000 mg/kg
fouling
  General Rating, 1 Mo.: 9 and 7
  General Rating, 4 Mos.: 3
  General Rating, 6 Mos.: 0

## COP(=S)(OC)Oc1ccc(Sc2ccc(OP(=S)(OC)OC)cc2)cc1 [dimethoxythiophosphate derivative of diphenyl sulfide]
rats
  LD50 value: 2030 mg/kg

## Oc1c(Cl)cc(Cl)c(Cl)c1Cc1c(O)c(Cl)cc(Cl)c1Cl [hexachlorophene]
[1]
  chlorine concentration in round island domains: 48%
  chlorine concentration in sea-like domains: 36%

## C=C(Cl)CSC(=S)N(CC)CC [2-chloro-2-propenyl diethylcarbamodithioate]
Rats or mice; in vivo, po
  LD50 value: 850

## c1ccc2c(c1)Nc1ccccc1S2 [Phenothiazine]
fouling; [3]
  Rating After Exposure, 4 Months: 0

## CCNc1nc(Cl)nc(NC(C)C)n1 [2-isopropylamino-4-chloro-6-ethylamino triazine]
rats
  LD50 value: 1869 mg/kg

## Nc1cnn(-c2ccccc2)c(=O)c1Cl [amino, chloro, phenyl derivative of azacyclohexamine]
Rats or mice; species not given, in mg/kg
  LD50 value: 3,030

## C=CCC1=C(C)C(OC(=O)[C@@H]2[C@@H](C=C(C)C)C2(C)C)CC1=O (stereo partly drawn) [d-Trans-Allerthrin]
fouling; [2]
  Rating After Exposure, 1 Months: 0-1
  Rating After Exposure, 4 Months: 0

## C=CCN(CC=C)C(=O)CCl [2-chloro-N,N-diallylacetamide]
rats
  LD50 value: 700 mg/kg
fouling
  General Rating, 1 Mo.: 5
  General Rating, 4 Mos.: 4
  General Rating, 6 Mos.: 0
Rats or mice; species not given, in mg/kg
  LD50 value: 750

## c1ccc(Nc2ccccc2)cc1 [diphenylamine]
mammalian
  mammalian toxicity: Low mammalian toxicity
fouling
  General Rating, 1 Mo.: 5
  General Rating, 6 Mos.: 0
fouling; listed as Diphenylanaline
  General Rating, 4 Mos.: 4 and 3

## O=C(O)CNCP(=O)(O)O [aminoacetic acid derivative of methylphosphonate]
Rats or mice; species not given, in mg/kg
  LD50 value: 4,300

## O=C1C(Cl)=C(Cl)C(=O)c2ccccc21 [2,3-dichloro-1,4-napthoquinone]
fouling
  General Rating, 6 Mos.: 0
fouling; [4]
  General Rating, 1 Mo.: 7 and 5
  General Rating, 4 Mos.: 6 and 3

## O=C(Nc1cccc2c(NC(=O)n3ccnc3)cccc12)n1ccnc1
fouling; [5]
  Rating After Exposure, 1 Months: 6-7
  Rating After Exposure, 4 Months: 0

## O=C(O)Cc1c(Cl)ccc(Cl)c1Cl [trichlorophenyl acetic acid]
Rats or mice; species not given, in mg/kg
  LD50 value: 1,780

## CCCCCCCCCCCCCCCC[n+]1ccccc1 [cetylpyridinium chloride]
rats
  LD50 value: 200 mg/kg

## Nc1ccc(Cl)c(Cl)c1 [3,4-Dichloroaniline]
fouling; [6]
  Rating After Exposure, 4 Months: 0
  Rating After Exposure, 462 Days: 0

## CCOC(=O)C(O)(c1ccc(Cl)cc1)c1ccc(Cl)cc1 [ethyl 4-chloro-alpha(4-chlorophenyl)alpha-hydroxy benzene acetate]
rats
  LD50 value: 5,000 mg/kg

## CC(C)C(C(=O)OC(C#N)c1cccc(Oc2ccccc2)c1)c1ccc(Cl)cc1 (centres unmarked) [diphenyl ether, chlorophenyl derivative of the isobutyric acid ester of hydroxyacetonitrile]
Rats or mice; in vivo, po
  LD50 value: 451
fish
  toxicity to fish: toxic to fish

## Nc1c(Cl)cc([N+](=O)[O-])cc1Cl [2,-6-dichloro, 4-nitroaniline]
fouling; [6]
  Rating After Exposure, 4 Months: 0
  Rating After Exposure, 462 Days: 0

## C=CCC1=C(C)C(OC(=O)C2C(C=C(C)C)C2(C)C)CC1=O (centres unmarked) [allyl, methylhydroxy substituted cyclopententone ester of dimethylpropenyl cyclopropane carboxylic acid]
Rats or mice; species not given, in mg/kg
  LD50 value: 1,000

## Nc1cc(Cl)cc(C(=O)O)c1Cl [2,5-dichloro,3-amino benzoic acid]
Rats or mice; in vivo, po
  LD50 value: 5,620

## CN(C)C(=O)Nc1ccc(Cl)c(Cl)c1 [3-(3,4-Dichlorophenyl)-1,1-dimethyl urea]
fouling; [5]
  Rating After Exposure, 1 Months: 9
  Rating After Exposure, 4 Months: 0

## CCCCCCCCCCCCCCCC[N+](C)(C)C.[Br-] [cetyltrimethylammonium bromide]
rats
  LD50 value: 500 mg/kg

## NC(=O)Cc1cccc2ccccc12 [napthalene acetamide]
Rats or mice; in vivo, po
  LD50 value: 1,000

## Oc1ccccc1-c1ccccc1 [o-phenylphenol]
Rats or mice; species not given, in mg/kg
  LD50 value: 2,700

## N#Cc1c(Cl)c(Cl)c(Cl)c(Cl)c1C#N [Nopocide, 1,2-dicyano, tetrachlorobenzene]
fouling; [7]
  Rating After Exposure, 4 Months: 0
  Rating After Exposure, 462 Days: 0

## Nc1cc(Cl)ccc1Cl [2,5-Dichloroaniline]
fouling; [6]
  Rating After Exposure, 4 Months: 0
  Rating After Exposure, 462 Days: 0

## CCN(CC)c1nc(C)cc(OP(=S)(OC)OC)n1 [methyl, diethylamino, dimethoxythiophosphate derivative of pyrimidine]
rats
  LD50 value: 2,000 mg/kg
